Results taken from patent publication US11390580B2, “Anti-fungals targeting the synthesis of fungal shingolipids” (THE RESEARCH FOUNDATION FOR THE STATE UNIVERSITY OF NEW YORK, priority 2014, dated 2022).
Converted amounts (≈) assume the structure as drawn. Read-outs that look alike come from different tables or passages of the source.

Experiments:
[1] = Pharmacokinetics of BHBM; assay type: in vivo, mice; conditions: preliminary studies
[2] = test system: C. neoformans; test: Resistance assay, daily passages in sub-MIC drug; conditions: 15 days of passages below the MIC
[3] = test system: Pneumocystis murina; test: In vitro testing by ATP content (luciferin-luciferase); conditions: for inhibition at 0.1 µg/mL / inhibition at 1 µg/mL / inhibition at 10 µg/mL / inhibition at 100 µg/mL: read-out: percentage inhibition of ATP
[4] = test system: C. neoformans; test: Synergistic assay (fractional inhibitory index, FIC)
[5] = test system: synthesis of GlcCer in C. albicans cells; test: GlcCer synthesis in C. albicans; assay type: cell-based, Candida albicans
[6] = target: Gcs1 (Cryptococcus neoformans, UniProt J9W453); test: In vitro Gcs1 activity in cell lysate
[7] = test system: C. albicans secreted vesicles; test: Vesicle secretion measured by vesicular sterols; assay type: cell-based, Candida albicans
Description: WF, white field; NBD-Cer, NBD-ceramide.

[8] = test system: P. aeruginosa PA14; test: Antibacterial activity, LB agar well diffusion; conditions: up to 160 μg/mL, 30° C., 24 hr
[9] = test system: Candida glabrata; test: In vitro susceptibility testing (MIC); assay type: cell-based
[10] = test system: Pneumocystis jiroveci; test: In vitro testing by ATP content (luciferin-luciferase); conditions: for inhibition at 0.1 µg/mL / inhibition at 1 µg/mL / inhibition at 10 µg/mL / inhibition at 100 µg/mL: read-out: percentage inhibition of ATP
[11] = test system: Candida guilliermondii; test: In vitro susceptibility testing (MIC); assay type: cell-based
[12] = test system: intracellular C. neoformans; test: Intracellular effect in J774.16 macrophages; assay type: cell-based, Cryptococcus neoformans; conditions: dose-dependent, particularly after 12 and 24 hours
Description: After 2 hours of incubation, about 60-80% of macrophages have at least one C. neoformans cell internalized. At this time, wells were washed to remove extracellular fungal cells and fresh DMEM medium without serum and without mAb 18B7 but containing different concentrations of BHBM was added. […] At selected time points, 0, 6, 12 and 24 hours, extracellular cells were collected by washing and plated onto YPD for CFU counting of extracellular cells. Then, macrophages containing C. neofromans were lysed, collected and serial dilutions were plated onto YPD for CFU counting of intracellular fungal cells.

[13] = test system: Paecilomyces variotii; test: In vitro susceptibility testing (MIC); assay type: cell-based; conditions: for BHBM 24 Hr 50% / BHBM 48 Hr 50%: MIC, QC strain
[14] = test system: Candida krusei; test: In vitro susceptibility testing (MIC); assay type: cell-based; conditions: for BHBM 24 Hr 50% / BHBM 48 Hr 50%: MIC, QC strain
[15] = test system: S. cerevisiae heterozygote library mutants
[16] = test system: Golgi morphology of C. albicans; test: C6-NBD-ceramide staining of the Golgi; assay type: cell-based, Candida albicans; conditions: 4 μg/ml
Description: The Golgi apparatus of C. neoformans and C. albicans was stained with C6-NBD-ceramide using a previously described protocol (Kmetzsch, L. et al. 2011), based on the property that this fluorescent lipid accumulates at the Golgi of either living or fixed cells (Pagano R. E. et al. 1989). […] Cell suspensions were then washed with the same buffer and incubated with C6-NBD-ceramide ([…]) for 16 h at 4° C. The cells were then incubated with bovine serum albumin (BSA, 1%) at 4° C. for 1 h to remove the excess of C6-NBD-ceramide. […] Louis, USA) for 30 min at room temperature. The cells were washed again with PBS and stained cell suspensions were mounted over glass slides as described above and analyzed under an Axioplan 2 (Zeiss, Germany).

[17] = test system: L2 cell line; test: In vitro toxicity; assay type: cell-based

Gcs1, sequence (J9W453 whole entry): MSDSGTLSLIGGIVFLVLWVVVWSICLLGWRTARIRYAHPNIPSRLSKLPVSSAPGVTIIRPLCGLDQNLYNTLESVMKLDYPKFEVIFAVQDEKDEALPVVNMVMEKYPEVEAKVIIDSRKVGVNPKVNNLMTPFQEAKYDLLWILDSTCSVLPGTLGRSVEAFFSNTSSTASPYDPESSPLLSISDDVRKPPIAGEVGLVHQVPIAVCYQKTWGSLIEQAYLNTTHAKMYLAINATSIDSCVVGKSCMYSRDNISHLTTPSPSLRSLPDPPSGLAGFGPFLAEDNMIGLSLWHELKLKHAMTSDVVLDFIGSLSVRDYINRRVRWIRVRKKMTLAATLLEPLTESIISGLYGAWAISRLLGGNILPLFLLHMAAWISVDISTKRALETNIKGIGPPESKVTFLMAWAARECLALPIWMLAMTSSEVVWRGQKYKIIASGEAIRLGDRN

For `Cc1ccccc1C(=O)NN=Cc1ccc(O)c(Br)c1` [BHBM, N′-(3-bromo-4-hydroxybenzylidene)-2-methylbenzohydrazide], the “tissue distribution, brain” value [1] was “found in the brain tissue”, the development of resistance [2] was “do not develop resistance” and the IC50 ([3]; 24 h, read-out: IC50, P. murina) was 1.02 µg/mL (≈ 3.06 µM). The inhibition at 0.1 µg/mL ([3]; 24 h) was 6.64%, the inhibition at 1 µg/mL ([3]; 24 h) was 66.2% and the inhibition at 10 µg/mL ([3]; 24 h) was 88.2%. For the same molecule, the inhibition at 100 µg/mL ([3]; 24 h) was 97%, the IC50 ([3]; 48 h, read-out: IC50, P. murina) was less than 0.01 µg/mL and the inhibition at 0.1 µg/mL ([3]; 48 h) was 76%. It also gave an inhibition at 1 µg/mL ([3]; 48 h) of 87.6%, an inhibition at 10 µg/mL ([3]; 48 h) of 94.6% and an inhibition at 100 µg/mL ([3]; 48 h) of 98.9%. The IC50 ([3]; 72 h, read-out: IC50, P. murina) was less than 0.01 µg/mL, the inhibition at 0.1 µg/mL ([3]; 72 h) was 63.8% and the inhibition at 1 µg/mL ([3]; 72 h) was 74.6%. It also gave an inhibition at 10 µg/mL ([3]; 72 h) of 93.6%, an inhibition at 100 µg/mL ([3]; 72 h) of 99.4% and an IC50 ([3]; 96 h, read-out: IC50, P. murina) of 2.02 µg/mL (≈ 6.06 µM). The inhibition at 0.1 µg/mL ([3]; 96 h) was 16.6%, the inhibition at 1 µg/mL ([3]; 96 h) was 44.5% and the inhibition at 10 µg/mL ([3]; 96 h) was 66.7%. The inhibition at 100 µg/mL ([3]; 96 h) was 91.5%, the IC50 ([3]; read-out: activity class by IC50, P. murina) was less than 0.01 µg/mL and the FIC index ([4]; combined with Amphotericin B) was 0.75. For the same molecule, the FIC index ([4]; combined with Fluconazole) was 0.38, the interaction ([4]; combined with Tunicamycin) was “synergistic” and the FIC index ([4]; combined with caspofungin) was 1. For the same molecule, the “synthesis of GlcCer” value [5] was “inhibited in a dose dependent manner”, the “in vitro activity of Gcs1” value [6] was “does not inhibit” and the “secreted vesicles measured by sterol content” value [7] was “marked reductions of secreted vesicles”. For the same molecule, the zone of inhibition [8] was “No zone of inhibition”, the MIC range ([9]; 10 Fungus Testing Lab strains) was 0.125 to 2 µg/mL and the MIC ([9]; Nakaseomyces glabratus, read-out: MIC (moderately active)) was 8 to 16 µg/mL (≈ 24 to 48 µM). For the same molecule, the IC50 ([10]; 24 h, read-out: IC50, P. jiroveci) was 0.912 µg/mL (≈ 2.74 µM), the inhibition at 0.1 µg/mL ([10]; 24 h) was 16.1% and the inhibition at 1 µg/mL ([10]; 24 h) was 51.5%. The inhibition at 10 µg/mL ([10]; 24 h) was 97%, the inhibition at 100 µg/mL ([10]; 24 h) was 98.9% and the IC50 ([10]; 48 h, read-out: IC50, P. jiroveci) was 0.159 µg/mL (≈ 0.477 µM). The inhibition at 0.1 µg/mL ([10]; 48 h) was 26.2%, the inhibition at 1 µg/mL ([10]; 48 h) was 92.6% and the inhibition at 10 µg/mL ([10]; 48 h) was 97.8%. The inhibition at 100 µg/mL ([10]; 48 h) was 98.6%, the IC50 ([10]; 72 h, read-out: IC50, P. jiroveci) was 0.074 µg/mL (≈ 0.222 µM) and the inhibition at 0.1 µg/mL ([10]; 72 h) was 39.1%. For the same molecule, the inhibition at 1 µg/mL ([10]; 72 h) was 87.8%, the inhibition at 10 µg/mL ([10]; 72 h) was 94.8% and the inhibition at 100 µg/mL ([10]; 72 h) was 98.1%. It also gave an IC50 ([10]; 96 h, read-out: IC50, P. jiroveci) of 0.072 µg/mL (≈ 0.216 µM), an inhibition at 0.1 µg/mL ([10]; 96 h) of 46.2% and an inhibition at 1 µg/mL ([10]; 96 h) of 77%. For the same molecule, the inhibition at 10 µg/mL ([10]; 96 h) was 90.1%, the inhibition at 100 µg/mL ([10]; 96 h) was 98.9% and the IC50 ([10]; read-out: activity class by IC50, P. jiroveci) was 0.011 to 0.099 µg/mL (≈ 0.033 to 0.297 µM). The “BHBM 24 Hr 50%” value ([11]; MIC, FTL strains) was greater than 16, the “BHBM 48 Hr 50%” value ([11]; MIC, FTL strains) was greater than 16 and the MIC ([11]; Meyerozyma guilliermondii, read-out: MIC (moderately active)) was 8 to 16 µg/mL (≈ 24 to 48 µM). For the same molecule, the “intracellular replication of C. neoformans” value [12] was “significantly decrease the intracellular replication”, the “in vitro activity” value [13] was “not active” and the “BHBM 24 Hr 50%” value [13] was 8. For the same molecule, the “BHBM 48 Hr 50%” value [13] was greater than 16, the “BHBM 24 Hr 50%” value ([13]; first listing r7-r78) was 8 and the “BHBM 48 Hr 50%” value ([13]; first listing r7-r78) was greater than 16. For the same molecule, the MIC range ([13]; QC, Fungus Testing Lab) was greater than 16 µg/mL, the MIC range ([14]; 1 MDP Lab strain) was 32 µg/mL (≈ 96 µM) and the MIC range ([14]; ATCC 6258, MDP Lab) was 16 µg/mL (≈ 48 µM). For the same molecule, the “BHBM 24 Hr 50%” value [14] was 4, the “BHBM 48 Hr 50%” value [14] was 8 and the “BHBM 24 Hr 50%” value ([14]; first listing r7-r78) was 4. For the same molecule, the “BHBM 48 Hr 50%” value ([14]; first listing r7-r78) was 8, the MIC ([14]; Pichia kudriavzevii, read-out: MIC (moderately active)) was 8 to 16 µg/mL (≈ 24 to 48 µM) and the MIC range ([14]; QC, Fungus Testing Lab) was 8 µg/mL (≈ 24 µM). For the same molecule, the “Fold increased sensitivity to BHBM” value ([15]; ACT1 heterozygote mutant) was 2.0 Fold, the “Fold increased sensitivity to BHBM” value ([15]; GLC7 heterozygote mutant) was 2.1 Fold and the “Fold increased sensitivity to BHBM” value ([15]; GOS1 heterozygote mutant) was 2.1 Fold. For the same molecule, the “Fold increased sensitivity to BHBM” value ([15]; MTW1 heterozygote mutant) was 2.5 Fold, the “Fold increased sensitivity to BHBM” value ([15]; PEP7 heterozygote mutant) was 2.2 Fold and the “Fold increased sensitivity to BHBM” value ([15]; REG1 heterozygote mutant) was 2.5 Fold. The “Fold increased sensitivity to BHBM” value ([15]; RET2 heterozygote mutant) was 3.8 Fold, the “Fold increased sensitivity to BHBM” value ([15]; RET3 heterozygote mutant) was 2.0 Fold and the “times more sensitive to BHBM” value ([15]; Rvs167) was 1.7 time. The “Fold increased sensitivity to BHBM” value ([15]; SAP4 heterozygote mutant) was 2.1 Fold, the “Fold increased sensitivity to BHBM” value ([15]; SEC26 heterozygote mutant) was 2. Fold and the “Fold increased sensitivity to BHBM” value ([15]; SEC31 heterozygote mutant) was 2.1 Fold. For the same molecule, the “Fold increased sensitivity to BHBM” value ([15]; SNF8 heterozygote mutant) was 2.1 Fold, the “Fold increased sensitivity to BHBM” value ([15]; SPT4 heterozygote mutant) was 2.3 Fold and the “Fold increased sensitivity to BHBM” value ([15]; UBP3 heterozygote mutant) was 3.0 Fold. For the same molecule, the “Fold increased sensitivity to BHBM” value ([15]; VPS3 heterozygote mutant) was 2.0 Fold, the “Fold increased sensitivity to BHBM” value ([15]; YML018C heterozygote mutant) was 2.1 Fold and the Golgi morphology [16] was “changes in the Golgi morphology were dramatic”. The toxicity [17] was “slight to moderate toxicity”.
